Measurements published in patent US20250032523A1, “ACTIVE HUMAN MILK OLIGOSACCHARIDE PREPARATION WITH ALLERGY-ALLEVIATING FUNCTION, AND USE THEREOF” (Zhejiang Gongshang University, priority 2023, published 2025).
“Also recorded” adds a separate entry of the source.

Key:
[1] = test system: purified T cells from mouse spleen; assay: Immune cell allergy model: RT-qPCR of allergy-associated genes in OVA-stimulated purified T cells from mouse spleen; assay type: cell-based; conditions: HMO preparation at final concentration 100 μg/mL, versus sensitization group
Protocol: (§1) In a fourth aspect, the present disclosure also provides a use of the active HMO preparation in construction of an immune cell allergy model, where the construction method of the immune cell allergy model includes the following steps: • (1) taking a cryopreserved mouse bone marrow-derived dendritic cell (DC) line DC2.4, and subjecting the cryopreserved mouse bone marrow-derived DC line DC2.4 to recovery, activation, and subculture in an incubator (37° C. and 5% CO2); • (2) sacrificing a Balb/c female mouse through cervical dislocation, collecting a spleen in a clean bench, subjecting the spleen to grinding, red blood cell lysis, washing, and re-suspension with a cell culture medium to obtain a mouse spleen single-cell suspension, and purifying T cells from the spleen single-cell suspension through magnetic bead separation; • (3) inoculating the cells in a 12-well cell culture plate, dividing the cells into a control group, a sensitization group, and an intervention group with 3 biological replicates for each group, and culturing the cells in an incubator (37° C. and 5% CO2); and • (4) extracting total RNA from cells, and detecting an RNA concentration with a nucleoprotein concentration meter for follow-up experiments; and reverse-transcribing the extracted RNA immediately into cDNA, conducting quantitative reverse transcription polymerase chain reaction (RT-qPCR), and with β-actin as an internal reference gene, calculating a relative expression level of a target gene by a 2^−ΔΔCt method.
(§2) In the present disclosure, an effect of the preparation is verified. When the immune cell allergy model is constructed, a sensitinogen used is ovalbumin (OVA), and relative expression levels of genes for a pro-inflammatory factor OX40L, an anti-inflammatory factor IL-10, a Th2-type cytokine IL-5, a Th1-type associated cytokine T-bet, a Th2-type cytokine IL-4, and a Th1-type associated cytokine IFN-γ are calculated.
(2) An SPF grade Balb/c female mouse was sacrificed through cervical dislocation and dissected under sterile conditions, a spleen tissue was collected and subjected to grinding, red blood cell lysis, washing, and re-suspension with an RPMI-1640 medium to prepare a mouse spleen single-cell suspension, and T cells in the mouse spleen were extracted through magnetic bead separation.
(3) The cells were divided into 4 groups with 3 replicates for each group, including a control group, a sensitization group, an HMO preparation intervention group 1 (Example 1), and an HMO preparation intervention group 2 (Example 2). […]
(§3) (4) Total RNA was extracted from cells and reverse-transcribed into cDNA, and an expression level of an allergy-associated gene in the cells was detected by RT-qPCR. […]

[2] = test system: mouse bone marrow-derived DC line DC2.4; assay: Immune cell allergy model: RT-qPCR of allergy-associated genes in OVA-stimulated DC2.4 cells; assay type: cell-based; conditions: HMO preparation at final concentration 100 μg/mL, versus sensitization group
Protocol: as §1, §2
(1) A cryopreserved mouse bone marrow-derived DC line DC2.4 was taken and subjected to recovery, activation, and subculture, and cells of generation 4 to 6 with a strong activity were selected for the experiment.
(3) The cells were divided into 4 groups with 3 replicates for each group, including a control group, a sensitization group, an HMO preparation intervention group 1 (Example 1), and an HMO preparation intervention group 2 (Example 2). In the HMO preparation intervention groups, an HMO preparation was added at a final concentration of 100 μg/mL to cells, and the cells were cultured in an incubator (37° C. and 5% CO2).
as §3

[3] = test system: food allergy mice; assay: Food allergy mice (OVA sensitization), intragastric HMO preparation, RT-qPCR of spleen tissue; assay type: in vivo, mouse; conditions: OVA-sensitized mice, intragastric administration, versus sensitized mice
Description: The anti-allergy active HMO preparations of LNFP-I and 2′-FL were intragastrically administered to food allergy mice to alleviate food allergy symptoms.
(1) Mice were intragastrically administered with OVA for sensitization, and then intervened with an HMO preparation intervention group 1 (Example 1) and an HMO preparation intervention group 2 (Example 2), respectively.
(2) The mice were sacrificed through cervical dislocation and dissected under sterile conditions, and spleen tissues were collected and stored in liquid nitrogen.
(3) Total RNA was extracted from each mouse spleen tissue and reverse-transcribed into cDNA, and an expression level of an allergy-associated gene was detected by RT-qPCR.
The anti-allergy active HMO preparations were intragastrically administered in a mass ratio of 1:3 to food allergy mice to alleviate food allergy symptoms.
(1) Mice were intragastrically administered with OVA for sensitization, and then intervened with the anti-allergy active HMO preparation prepared in Example 5 at a mass ratio of 1:3.

Row | Substance | expression level of the gene for Th1-type associated cytokine T-bet (relative mRNA, RT-qPCR) [1] | expression level of the gene for Th2-type cytokine IL-5 (relative mRNA, RT-qPCR) [1] | expression level of the gene for anti-inflammatory factor IL-10 (relative mRNA, RT-qPCR) [2] | expression level of the gene for pro-inflammatory factor OX40L (relative mRNA, RT-qPCR) [2] | expression level of the gene for Th1-type associated cytokine IFN-γ in spleen (relative mRNA, RT-qPCR) [3] | expression level of the gene for Th2-type cytokine IL-4 in spleen (relative mRNA, RT-qPCR) [3]
1 | 2′-fucosyllactose [intervention group 2] | significantly stimulate an expression level of the gene for T-bet to increase | decreases to some degree | significantly stimulate an expression level of a gene for IL-10 to further increase | can be reduced | greatly stimulate an expression level of the gene for IFN-γ to further increase | decrease significantly
2 | lacto-N-fucopentaose I [intervention group 1] | significantly stimulate an expression level of the gene for T-bet to increase; also recorded: increases more significantly than an expression level of the gene for T-bet in the intervention group 2 | decreases slightly | significantly stimulate an expression level of a gene for IL-10 to further increase; also recorded: increases more than an expression level of the gene for IL-10 in the intervention group 2 | can be reduced | significantly stimulate an expression level of the gene for IFN-γ to further increase | does not change significantly
